Results reported in ChEMBL document CHEMBL1150514, “Synthesis and HIV-1 reverse transcriptase inhibition properties of two new methylenephosphonate analogues of 3-azido-3-deoxythymidine-5-triphosphate” (Bioorg Med Chem Lett, 1995).

Biological target: Human immunodeficiency virus type 1 reverse transcriptase (Human immunodeficiency virus 1, UniProt Q72547)
Experiment: Inhibitory activity against HIV-1 reverse transcriptase

| IC50 | SMILES |
| --- | --- |
| 39 µM | Cc1cn(C2CC(N=[N+]=[N-])C(COP(=O)(O)CCCP(=O)(O)O)O2)c(=O)[nH]c1=O (stereo not drawn) |
| 48 µM | Cc1cn(C2CC(N=[N+]=[N-])C(COP(=O)(O)CP(=O)(O)CP(=O)(O)O)O2)c(=O)[nH]c1=O (stereo not drawn) |
| 0.043 µM | Cc1cn([C@H]2C[C@H](N=[N+]=[N-])[C@@H](CO[P@](=O)(O)O[P@](=O)(O)OP(=O)(O)O)O2)c(=O)[nH]c1=O [ZIDOVUDINE TRIPHOSPHATE] |
